# Patent US20230218629A1, “THERAPEUTIC COMPOSITIONS AND METHODS FOR PREVENTION AND TREATMENT OF DIASTOLIC DYSFUNCTION” (AMBETEX PTY LTD, priority 2019, published 2023)
# Legend:
# Type in all cases: in vivo
# [1] = tested on: obese mice (HFD); test: Verubecestat-High fat diet (HFD) treatment study
# Experimental: Verubecestat-High fat diet (HFD) treatment study: At 12 weeks of age, mice (n=30) were placed on a HFD with 43% of calories from fat (23.5% by weight; SF04-001 High Fat Rodent Diet Based on D12451, Specialty Feeds, Glen Forrest, Wash.). After 13 weeks of the diet period, echocardiography was performed on all mice to obtain pre-drug treatment measures of cardiac function. Mice were allocated to treatment groups so that measures of cardiac function and morphology were matched as best as possible. Verubecestat (MedChemExpress) was resuspended in 100% DMSO before being diluted in a hydroxypropyl cellulose solution to give a final solution containing 6.25 mg/mL Verubecestat in 10% hydroxypropyl cellulose and 5% DMSO. A vehicle solution containing 10% hydroxypropyl cellulose and 5% DMSO was also made. Aliquots of both drug and vehicle were stored at −80° C. until required. The HFD/Verubecestat group was administered 25 mg/kg of Verubecestat per day by oral gavage, while the HFD/control group received an equivalent volume of vehicle. Echocardiography was then performed following 4 weeks of the treatment period to obtain post-drug treatment measures of cardiac function. Following 5 weeks of the drug administration, mice were humanely killed via cervical dislocation and blood was immediately obtained via cardiac puncture and stored in a heparinised tube. The heart, epididymal fat pad, mesenteric fat pad, liver, quadricep, hind limb and brain were then immediately dissected. The heart was blotted prior to being weighed and all tissues were snap frozen in liquid nitrogen and stored at −80° C. Plasma Aβ species were measured using high sensitivity ELISA kits (Wako Diagnostics) and plasma that was diluted 1:10 with assay buffer.
# [2] = tested on: Male C57BL6 mice; test: Aβ40 administration study
# Experimental: Aβ40 administration study: Lyophilised recombinant Aβ40 (Millipore) and scrambled control peptide (ScrAβ40; Millipore) were resuspended in 1% NH4OH and aliquoted at 200 ng/ml in H2O and stored at −80° C. for no longer than 4 weeks. Male C57BL6 mice were obtained from the Animal Resource Centre (Perth, Wash.) at 4 weeks of age and housed with 4 mice per cage on a 12 hr light/dark cycle at a temperature of 22° C. and a constant humidity with a normal rodent diet. At 12 weeks of age, mice were grouped according to body mass and composition, determined by EchoMRI. Mice were then administered 1 μg of recombinant Aβ40 or ScrAβ40 (n=12/group per cohort) by i.p. injection once/day for 5 wks. After 4 weeks of peptide administration, cardiac function was assessed by echocardiography as follows. Mice were anaesthetised with inhalation of 1.5% isoflurane anaesthesia and echocardiography was performed using the Phillips HD15 diagnostic ultrasound system with a 15 MHz linear-array transducer by an experienced veterinarian. The velocity of blood flow through the mitral valve was analysed using Doppler mode imaging. […] Doppler imaging was also utilised to measure the velocity of blood flow through the aortic valve. The measurements were then used to calculate the ejection time, peak aortic flow and heart rate. M-mode imaging of the left ventricle was used to measure the thickness of the inter-ventricular septum (IVS), left ventricular internal diameter (LVID) and left ventricular posterior wall (LVPW) in both diastole (d) and end-systole (s) as well as systolic measures such as ejection fraction and fractional shortening. An estimation of LV mass was calculated from the m-mode imaging by using the formula (1.05[LVIDd+LVPWd+IVSd]^3−[LVIDd]^3) by Troy et al. (1972). Mice were humanely killed by cervical dislocation 1 week later. Blood was obtained immediately following by cardiac puncture and the heart, and other tissues were immediately removed. Hearts were washed in ice cold PBS and weighed prior to being snap frozen in liquid nitrogen. Plasma Aβ40 was measured using a high sensitivity ELISA kit (Wako Diagnostics) and plasma that was diluted 1:10 with assay buffer.
# [3] = tested on: Male C57BL6 mice; test: Aβ42 administration study: GTT with glucose tracers, cardiac metabolism
# Experimental: At 12 weeks of age, mice were grouped according to body mass and composition, determined by EchoMRI. […] An i.p. glucose tolerance test (GTT) was performed on the final treatment day following an overnight fast. Mice were administered 2 g/kg lean mass of glucose including radioactive glucose tracers, prepared as follows. 100 μl of 1 μCi/μl glucose analogue, [^3H]-2-deoxyglucose (2-DOG), and 500 μl of 200 μCi/mL U-^14C glucose were evaporated to dryness before redissolving the radioactive tracers in 1 mL of 50% glucose. This produced a 50% glucose solution containing 100 μCi/mL [^3H]-2-DOG and 100 μCi/mL U-^14C glucose. The tail tip of each mouse was cut off and the blood glucose concentration of a blood sample was measured using an AccuCheck II glucometer (Roche). The GTT was initiated via intraperitoneal injection of the radiolabelled glucose solution (2 g/kg body weight, 10 uCi/animal) into the overnight-fasted mice. Further blood samples were taken at 15, 30, 45, 60 and 90 minutes after the injection for the measurement of blood glucose. Blood samples (30 μl) were also taken from the tail tip at each time point and diluted in 100 μl of saline. These samples were then centrifuged and the supernatant collected. 50 μl of the supernatant was diluted in 500 μl of distilled water and then suspended in 4 mL of Ultima Gold XR scintillation fluid (Packard Bioscience). Blood radioactivity was determined at each time point by performing liquid scintillation counting on each solution using the Beckman scintillation counter (LS6000 SC). At the conclusion of the GTT, mice were killed via cervical dislocation. Blood was obtained immediately following by cardiac puncture and the heart, and other tissues were immediately removed. Hearts were washed in ice cold PBS and weighed prior to being snap frozen in liquid nitrogen. The heart (30 mg), epididymal fat pad (30 mg and quadriceps skeletal muscle (30 mg) were homogenised in 1.5 ml of distilled water. The homogenate was centrifuged at 3000 rpm for 10 min at 4° C. 400 μl of the supernatant was diluted into 1.6 mL of distilled water and then suspended in 14 mL of Ultima Gold XR scintillation fluid (Packard Bioscience). The radioactivity of each sample (from both [3H]-2-DOG6P and [^3H]-2-DOG) was determined by liquid scintillation counting using the Beckman scintillation counter (LS6000 SC). The ^3H radioactivity was used to measure glucose uptake into each tissue.
# To determine the incorporation of U-^14C glucose into triglyceride and the total triglyceride content in the heart, an extraction of triglyceride was carried out using a chloroform/methanol mixture. Samples of heart (30 mg) were hand-homogenised in 2 mL of chloroform/methanol (2:1) and the homogeniser rinsed in a further 2 mL of chloroform/methanol (2:1), and the washings being added to the original extract in 10 mL tubes. The tubes were tightly capped and mixed on a rotator overnight to maximise extraction of the triglycerides. 2 ml of 0.6% saline was then added, to facilitate the separation of the organic and aqueous phases, after which the tubes were mixed thoroughly and then centrifuged at 2000 rpm for 10 minutes. […] The amount of U-^14C glucose clearance into the lipid fraction was measured by suspending 100 μl of the triglyceride solution in 5 mL of Ultima Gold XR scintillation fluid (Packard Bioscience), followed by scintillation counting using the Beckman scintillation counter (LS6000 SC).
# [4] = tested on: Male C57BL6 mice; test: Aβ42 administration study: cardiac function by echocardiography
# Experimental: After 4 weeks of peptide administration, cardiac function was assessed by echocardiography as follows. Mice were anaesthetised with inhalation of 1.5% isoflurane anaesthesia and echocardiography was performed using the Phillips HD15 diagnostic ultrasound system with a 15 MHz linear-array transducer by an experienced veterinarian. The velocity of blood flow through the mitral valve was analysed using Doppler mode imaging. […] Doppler imaging was also utilised to measure the velocity of blood flow through the aortic valve. The measurements were then used to calculate the ejection time, peak aortic flow and heart rate. M-mode imaging of the left ventricle was used to measure the thickness of the inter-ventricular septum (IVS), left ventricular internal diameter (LVID) and left ventricular posterior wall (LVPW) in both diastole (d) and end-systole (s) as well as systolic measures such as ejection fraction and fractional shortening. An estimation of LV mass was calculated from the m-mode imaging by using the formula (1.05[LVIDd+LVPWd+IVSd]^3−[LVIDd]^3) by Troy et al. (1972). Mice were humanely killed by cervical dislocation 1 week later. Blood was obtained immediately following by cardiac puncture and the heart, and other tissues were immediately removed. Hearts were washed in ice cold PBS and weighed prior to being snap frozen in liquid nitrogen.
molecule,measurement,setting,value
"CN1C(N)=N[C@](C)(c2cc(NC(=O)c3ccc(F)cn3)ccc2F)CS1(=O)=O [Verubecestat, verubecestat]",plasma Aβ40,"[1]; 25 mg/kg per day oral gavage, obese mice, FIG. 7A",decreased
same,plasma Aβ42,"[1]; 25 mg/kg per day oral gavage, obese mice, FIG. 7B",decreased
same,"DT after treatment, of baseline levels","[1]; 4 weeks of daily treatment, 25 mg/kg oral, vehicle group 122%, FIG. 7C",107%
"Aβ40: Lyophilised recombinant Aβ40 (Millipore), amyloid beta peptide",plasma Aβ40,"[2]; 1 μg/day i.p., 5 weeks, vs ScrAβ40, FIG. 6A",significantly increased
same,E:A ratio,[2]; FIG. 6B,did not have any effect
same,DT,[2]; FIG. 6C,did not have any effect
same,ejection fraction,[2]; FIG. 6E,nor any effect
same,IVSd,[2]; FIG. 6F,no effect
same,LVIDd,[2]; FIG. 6G,no effect
same,LV mass,[2]; FIG. 6H,no effect
"Aβ42: Lyophilised recombinant Aβ42 (Millipore), amyloid beta peptide of 42 amino acids",increase in plasma Aβ42 compared with administration of ScrAβ42,"[3]; 1 μg/day i.p., five weeks, FIG. 1A",approximately 3 fold
same,"cardiac gene expression (inflammation, endoplasmic reticulum stress)",[3]; FIG. 1E,gene expression changes indicative of cardiac stress responses
same,whole body glucose tolerance or plasma insulin throughout the GTT,"[3]; after five weeks of peptide administration, vs ScrAβ42",no difference
same,glucose incorporation into TAG (14C-glucose labelling),"[3]; heart, FIG. 1C",greater
same,total TAG,"[3]; heart, FIG. 1D",increased
same,internal dimensions of the left ventricle (LVIDd),[4]; FIG. 2B,no effect
same,deceleration time,[4]; FIG. 2D,increased
same,fractional shortening,[4]; FIG. 2F,reduced
same,ejection fraction,[4]; FIG. 2G,reduced
same,E normalised by isovolumetric relaxation time (IVRT),"[4]; between groups, FIG. 2E",no significant difference
same,gross heart weight,"[4]; five weeks Aβ42 vs ScrAβ42, FIG. 2A",no effect
